For series [1], the system named is rats rendus dépressifs. In words: Modified one-way avoidance test in rat (second depression model). The series is classed as in vivo. The conditions noted are these: dose de 1 mg/kg; per os, twice daily, eight days. From the text: (§1) L'activité antidépressive du mélange folate de lithium - glutamate de lithium a été étudiée sur deux modèles de rats rendus dépressifs. On a utilisé comme molécule de référence, la desméthylimipramine (DMI) et comme produit de comparaison un mélange de carbonate de lithium, d'acide folique et d'acide glutamique dans les mêmes proportions que l'association selon l'invention. Les traitements ont été poursuivis per os avec administration biquotidienne durant huit jours.
Le second test pratiqué est un test à voie unique (one-way)modifié. Dans un premier temps on apprend aux rats à passer d'un compartiment à un autre pour éviter un choc électrique. Les rats sélectionnés qui donnent systématiquement la réponse d'évitement sont placés dans un système à quatre compartiments avec retour au premier compartiment. Les animaux apprennent à éviter le choc électrique en passant du compartiment I à II, puis II à III et […]. Le passage de IV vers I pose un problème puisque les rats reconnaissent (ou sentent) le point de départ.
Les rats s'immobilisent en position de « freezing » en dépit des décharges électriques qu'ils reçoivent. Le temps requis pour amener l'immobilisation correspond à une phase de dépression.

Series [2] relates to rats rendus dépressifs. Put plainly: Despair test in rat (first depression model). The series is classed as in vivo. The following applies: dose de 10 mg; per os, twice daily, eight days.
Excerpt: as §1
Le premier modèle utilisé est le test du désespoir chez le rat (Despair Test). Les rats sont placés pour ce test dans une cuve d'eau tiédie à 27°C sans possibilité de s'échapper. Après une nage de quelques minutes, les animaux s'immobilisent et le temps moyen d'immobilité est chronométré. Il correspond à la phase de dépression. La DMI (antidépresseur de référence) à la dose de 10 mg diminue de 50 % ce temps d'immobilisation. Une courbe effet-dose a été établie avec l'association folate de lithium-glutamate de lithium. Un effet est observé dès la dose de 1 mg/kg. Il est maximum avec une dose de 20 mg/kg. A titre de comparaison, le lithium administré, sous forme de carbonate de lithium avec un mélange d'acide folique et d'acide glutamique, est moins actif sur ce modèle. On constate une potentialisation des effets du lithium lorsqu'il est administré sous forme de folate de lithium et de glutamate de lithium.

A short description of series [3]: Solubility of the lithium salts. Format: physicochemical. The conditions noted are these: solvents as named in the value.

For the compound `CNCCCN1c2ccccc2CCc2ccccc21` [DMI, desméthylimipramine], the “effet sur le temps d'immobilisation (freezing)” value in the series with rats rendus dépressifs [1] is “supprime complètement ce temps d'immobilisation”. Besides, the “diminution du temps d'immobilisation” value in the series on rats rendus dépressifs [2] is 50%. As for folate de lithium, in series [3], the solubilité result was “solubles dans l'eau et les solvants hydroxylés”. On to folinate de lithium [folinate lithié], for which the solubilité result in series [3] was “solubles dans l'eau et les alcools”.
